Experimental data as given in patent US20220160812A1, “A PHARMACEUTICALLY ACTIVE SUBSTANCE” (Cytopharma GmbH, priority 2019, published 2022).

Columns and labels:
[1] = system: A375 melanoma cells; experiment: subG1 cell cycle FACS apoptosis assay, A375 melanoma cells; assay type: cell-based, human; settings: about 24 hours, FIG. 3
Experimental: (§1) To transfer adherent cells (A375 and BxPC-3 cells) after culture, cells are washed twice with PBS. To detach the cells, the enzyme biotase is used according to the manufacturer's instructions. For this purpose, after washing with PBS, the cells are mixed with biotase (5 ml of biotase solution per 75 cm^2 surface of the cell culture bottles) and incubated for 5 min at 37 degrees Celsius, and the biotase is separated by centrifugation. Cells cultivated in suspension (MEC-1 and lymphocytes) were transferred by dilution. The cells are suspended in culture medium and counted, each time 1.5×10^5 cells/cm^2 are seeded in 48-well plates and cultured for between 1.5 and 24 hours at 37 degrees Celsius, 5% CO2. Peptides are pre-diluted from stock solution with culture medium and 200 μl of peptide solution added so that final concentrations of 30 to 500 μM peptide are present in at most 1% (v/v) DMSO. As control solutions, culture medium without peptide (DMSO-containing) in culture medium or etoposide solution is added. After incubating the cells for several hours, the cell supernatant is transferred to a FACS tube for each batch and, after washing the cells with PBS, the wash solution is added. Then the cells are incubated with 200 μl of biotase solution for 10 min, 37° C., the cells with the biotase are also transferred to the FACS tube and the cells are collected by centrifugation for 5 min. The cell pellet is suspended in 500 μl of serum-free culture medium, then 1.5 ml of cold 80% ethanol (ethanol/PBS-80/20, v/v, stored at −20° C.) is added, the FACS tubes sealed and stored at −20 degrees Celsius for 15 to 18 h. Thereafter, the cells are centrifuged for 5 minutes at 120 g, suspended after removal of the supernatant in 2 ml PBS and incubated at 37 degrees Celsius for 30 minutes. After re-centrifugation, the cells are suspended in 0.5 ml DAPI solution and incubated for 15 min at 20 degrees Celsius in the dark. Thereafter, the cells are stored dark for a maximum of four hours in an ice bath, followed by the FACS analysis.
The adherent cells (A375 and BxPC-3 cells and MDA-MB-231, respectively) are seeded 24 hours before induction in 6-well plates in culture medium. For this, the cells are washed with PBS, then incubated with trypsin/EDTA solution at 37 degrees Celsius and suspended in culture medium. The 6-well plates are loaded with 1×10^5 cells/cm^2 in culture medium and the cells incubated for 24 hours until induction with the peptides in the incubator. For induction, the peptides are diluted in fresh culture medium. As control solutions, culture medium without peptide (DMSO-containing) in culture medium or etoposide solution is added. The cells are washed with PBS. Thereafter the peptide solution in culture medium is added to the cells. After incubation in the incubator (37° C., 5% CO2) between 1.5 and 24 hours, the cell supernatant is transferred to 15 ml centrifuge tubes, the cells are washed with 0.75 ml PBS and then with 0.5 ml versene solution. Both washings are combined with the cell supernatant. The cells are then added with 0.5 ml of trypsin/EDTA solution and incubated at about 37° C. for at most 10 minutes until the cells detached. The cell suspension is combined with cell supernatant and washings and centrifuged at about 130 g for about 10 minutes. After removing the supernatant, the cells are suspended in 400 μl of cell culture medium (without serum) and mixed with 1.2 ml of 80% ethanol/20% PBS (v/v) and incubated for 1 to 7 days at −20° C. For analysis, the cells are centrifuged at 130 g for 10 min, suspended in 2 ml PBS, and centrifuged again for 5 min. The cells are suspended in 700 μl PI buffer and incubated for 10 min at 37° C. in the dark. Subsequently, the cells are stored dark for a maximum of four hours in an ice bath, then the FACS analysis is performed.
The proportion of cells which have died was determined by two methods, both rely on the analysis of cells by flow cytometry, often called FACS analysis. […]

[2] = system: A375 melanoma cells; experiment: cell vitality FACS analysis (region R-1, FSC/SSC), A375 melanoma cells; assay type: cell-based, human; settings: A375, Protocol A, about 24 hours, FIG. 7; for decrease of cell vitality, comparison in words: any concentration (100, 200, 500 μM)
Experimental: as §1
For suspension cells (MEC-1 and lymphocytes/PBMC) and for adherent cells analyzed according to Protocol A, FACS analysis to determine subG1 cell cycle and vital cell fractions was done on a Becton Dickinson LSR Fortessa flow cytometer. The analysis by FACS including subG1 and vital cell analysis according to protocol B was performed with a Cytomics FC 500 MPL flow cytometer from Beckman Coulter.
Changes of the cell form during cell death by apoptosis are documented in the literature (Lizard et al. 1995; Taga et al. 2000; Vermes et al., 2000). The protocols for cell cultivation, treatment and preparation of the cells before flow cytometry is detailed in separate examples. Cell suspensions of cell lines A375, BxPC-3, MEC-1 or of primary lymphocytes (see separate example of lymphocyte preparation) are analyzed by flow cytometry. The data are further analyzed by using the program “Flowing Software 2”. The data of light scattering are drawn in a two-dimensional FSC/SSC plot. Since the position in the FSC/SSC plot of apoptotic cells changes relative to non-apoptotic cells (Vermes et al., 2000), a region (R-1) is drawn representing mainly non-apoptotic cells and excluding cells with both low FSC and low SSC values and excluding cells with high values of FSC and/or SSC (FIG. 1). The regions are individually selected for each cell type (A375, BxPC-3, MEC-1 and primary lymphocytes). The percentage of untreated non-apoptotic cells in the region R-1 relative to total cells is set to 100%, representing 100% vital cells. The fraction (%) of cells in R-1 relative to the total number of cells in case of cell treatment by certain peptides or by cytotoxic drugs results in cell vitality, below 100%, thereby indicating a loss of cell vitality by the treatment. […]

s-q-t-v-q-k-w-m-v-v-y-f-r [SEQID No 38]
apoptosis efficiency (subG1), comparison in words ([1]; A375, Protocol A, 100, 200, 500 μM): clear improvement over peptide SEQID NO 27 at a concentration below 500 μM and over Peptide SEQID NO 39 at a concentration above 100 μM | apoptosis efficiency (subG1) in view of Peptide SEQ C1 ([1]; A375, Protocol A, any concentration (100, 200, 500 μM)): at least tenfold | efficiency (decrease of cell vitality) in view of Peptide SEQ C1 ([2]; 200 μM): at least threefold | efficiency (decrease of cell vitality) in view of Peptide SEQ C1 ([2]; 500 μM): at least tenfold | decrease of cell vitality, comparison in words [2]: clear improvement over peptides SEQID NO 27 and SEQID NO 39 at any concentration | decrease of cell vitality, comparison in words ([2]; listed as SEQID NO 38): significantly greater decrease than the peptide of the prior art (Peptide SEQ C1)
